Source: the kinase profiling compilation of Christmann-Franck et al. (2016)

Assays:
Experiment in all cases: radiometric filter-binding kinase assay
RIPK2 (human) = RIPK2 (human) (UniProt O43353); conditions: compound 1.0 µM
INSR (human) = INSR (human) (UniProt P06213)
EPHB3 (human) = EPHB3 (human) (UniProt P54753); conditions: compound 10.0 µM
NTRK1 (human) = NTRK1 (human) (UniProt P04629); conditions: compound 10.0 µM
ROCK2 (rat) = conditions: accession and sequence are those of the human protein
EPHA4 (human) = EPHA4 (human) (UniProt P54764)
Sequence of EPHA4 (human) (P54764 whole entry, looked up): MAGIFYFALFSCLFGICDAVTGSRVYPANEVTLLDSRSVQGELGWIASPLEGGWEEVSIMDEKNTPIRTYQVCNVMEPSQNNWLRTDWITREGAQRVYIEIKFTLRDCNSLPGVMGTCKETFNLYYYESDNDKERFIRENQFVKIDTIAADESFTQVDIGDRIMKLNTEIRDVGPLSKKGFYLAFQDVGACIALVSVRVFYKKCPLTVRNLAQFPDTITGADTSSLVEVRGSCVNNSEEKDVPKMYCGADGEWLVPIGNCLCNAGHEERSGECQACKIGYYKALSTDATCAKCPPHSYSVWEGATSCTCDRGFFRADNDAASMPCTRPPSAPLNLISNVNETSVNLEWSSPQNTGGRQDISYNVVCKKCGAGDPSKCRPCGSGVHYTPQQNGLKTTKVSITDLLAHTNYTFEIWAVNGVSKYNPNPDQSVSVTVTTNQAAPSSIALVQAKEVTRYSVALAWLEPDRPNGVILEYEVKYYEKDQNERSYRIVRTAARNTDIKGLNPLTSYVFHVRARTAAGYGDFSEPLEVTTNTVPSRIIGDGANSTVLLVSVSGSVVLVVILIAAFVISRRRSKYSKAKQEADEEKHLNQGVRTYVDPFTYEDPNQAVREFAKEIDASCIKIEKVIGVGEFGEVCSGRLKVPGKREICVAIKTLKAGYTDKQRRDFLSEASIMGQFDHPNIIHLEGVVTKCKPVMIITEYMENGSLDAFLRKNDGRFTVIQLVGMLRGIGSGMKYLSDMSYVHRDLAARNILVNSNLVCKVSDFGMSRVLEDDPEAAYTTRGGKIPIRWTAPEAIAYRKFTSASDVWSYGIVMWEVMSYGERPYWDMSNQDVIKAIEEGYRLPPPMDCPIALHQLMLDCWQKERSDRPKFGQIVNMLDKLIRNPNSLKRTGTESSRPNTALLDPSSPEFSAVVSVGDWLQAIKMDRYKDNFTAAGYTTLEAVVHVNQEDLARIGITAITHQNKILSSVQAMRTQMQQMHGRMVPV

DYRK1A (human) = DYRK1A (human) (UniProt Q13627); conditions: compound 1.0 µM
TAOK1 (human) = TAOK1 (human) (UniProt Q7L7X3)
MAPKAPK3 (human) = MAPKAPK3 (human) (UniProt Q16644)
Sequence of MAPKAPK3 (human) (Q16644 whole entry, looked up): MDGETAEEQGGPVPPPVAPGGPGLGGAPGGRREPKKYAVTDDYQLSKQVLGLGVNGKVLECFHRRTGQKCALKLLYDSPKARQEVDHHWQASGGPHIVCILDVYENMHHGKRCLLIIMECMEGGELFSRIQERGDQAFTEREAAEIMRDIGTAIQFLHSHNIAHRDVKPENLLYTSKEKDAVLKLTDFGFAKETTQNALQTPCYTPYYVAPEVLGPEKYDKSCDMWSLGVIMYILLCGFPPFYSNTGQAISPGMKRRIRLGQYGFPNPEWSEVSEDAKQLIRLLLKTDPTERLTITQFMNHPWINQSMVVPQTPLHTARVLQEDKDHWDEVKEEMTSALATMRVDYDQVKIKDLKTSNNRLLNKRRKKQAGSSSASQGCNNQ

TEK (human) = TEK (human) (UniProt Q02763)
Sequence of TEK (human) (Q02763 whole entry, looked up): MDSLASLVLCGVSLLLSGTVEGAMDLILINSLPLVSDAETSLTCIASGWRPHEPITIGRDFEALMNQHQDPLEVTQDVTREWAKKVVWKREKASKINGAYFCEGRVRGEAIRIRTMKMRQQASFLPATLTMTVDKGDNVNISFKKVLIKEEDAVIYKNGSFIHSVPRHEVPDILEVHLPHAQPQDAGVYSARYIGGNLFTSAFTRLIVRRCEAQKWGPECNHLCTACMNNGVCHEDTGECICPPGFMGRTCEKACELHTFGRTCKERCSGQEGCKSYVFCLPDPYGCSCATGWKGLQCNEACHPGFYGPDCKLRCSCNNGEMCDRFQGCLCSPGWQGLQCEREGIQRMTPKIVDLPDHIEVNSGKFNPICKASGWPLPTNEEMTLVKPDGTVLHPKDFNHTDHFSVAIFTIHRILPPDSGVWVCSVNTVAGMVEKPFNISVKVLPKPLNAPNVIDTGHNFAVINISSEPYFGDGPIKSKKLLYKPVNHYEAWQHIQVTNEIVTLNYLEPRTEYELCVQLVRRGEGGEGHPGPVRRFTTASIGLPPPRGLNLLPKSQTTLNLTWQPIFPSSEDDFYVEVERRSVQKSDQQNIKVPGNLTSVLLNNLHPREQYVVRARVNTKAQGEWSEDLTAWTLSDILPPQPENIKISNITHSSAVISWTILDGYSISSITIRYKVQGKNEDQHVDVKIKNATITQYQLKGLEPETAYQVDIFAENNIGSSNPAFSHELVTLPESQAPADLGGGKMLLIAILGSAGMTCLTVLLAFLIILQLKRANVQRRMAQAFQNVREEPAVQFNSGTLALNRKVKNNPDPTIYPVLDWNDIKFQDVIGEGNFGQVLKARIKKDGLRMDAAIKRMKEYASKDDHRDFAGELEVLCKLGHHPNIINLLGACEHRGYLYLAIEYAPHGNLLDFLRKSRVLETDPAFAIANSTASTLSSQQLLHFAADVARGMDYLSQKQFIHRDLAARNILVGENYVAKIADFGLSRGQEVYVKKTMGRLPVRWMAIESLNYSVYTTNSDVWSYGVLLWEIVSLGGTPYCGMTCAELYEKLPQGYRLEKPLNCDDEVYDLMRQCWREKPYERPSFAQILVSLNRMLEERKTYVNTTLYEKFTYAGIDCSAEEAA

IRAK4 (human) = IRAK4 (human) (UniProt Q9NWZ3)
Sequence of IRAK4 (human) (Q9NWZ3 whole entry, looked up): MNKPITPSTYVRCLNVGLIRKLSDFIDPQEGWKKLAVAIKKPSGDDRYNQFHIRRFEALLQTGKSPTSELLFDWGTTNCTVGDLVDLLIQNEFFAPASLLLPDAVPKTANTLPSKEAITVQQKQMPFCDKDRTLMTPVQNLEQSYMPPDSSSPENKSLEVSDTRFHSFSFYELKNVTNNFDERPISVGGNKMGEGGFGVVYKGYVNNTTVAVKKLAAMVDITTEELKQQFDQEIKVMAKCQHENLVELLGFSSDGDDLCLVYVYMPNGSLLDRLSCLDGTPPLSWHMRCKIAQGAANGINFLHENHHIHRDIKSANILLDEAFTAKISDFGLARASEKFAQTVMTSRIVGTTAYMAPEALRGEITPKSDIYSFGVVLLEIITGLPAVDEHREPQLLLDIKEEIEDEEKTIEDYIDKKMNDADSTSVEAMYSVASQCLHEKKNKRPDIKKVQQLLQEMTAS

[1] = tested on: AKT1 (human), P31749 [S473D]
JAK2 JH1 JH2 (human) = JAK2 JH1 JH2 (human) (UniProt O60674); conditions: compound 1.0 µM
MAPK3 (human) = MAPK3 (human) (UniProt P27361)
MAPK13 (human) = MAPK13 (human) (UniProt O15264)
PTK6 (human) = PTK6 (human) (UniProt Q13882)
Sequence of PTK6 (human) (Q13882 whole entry, looked up): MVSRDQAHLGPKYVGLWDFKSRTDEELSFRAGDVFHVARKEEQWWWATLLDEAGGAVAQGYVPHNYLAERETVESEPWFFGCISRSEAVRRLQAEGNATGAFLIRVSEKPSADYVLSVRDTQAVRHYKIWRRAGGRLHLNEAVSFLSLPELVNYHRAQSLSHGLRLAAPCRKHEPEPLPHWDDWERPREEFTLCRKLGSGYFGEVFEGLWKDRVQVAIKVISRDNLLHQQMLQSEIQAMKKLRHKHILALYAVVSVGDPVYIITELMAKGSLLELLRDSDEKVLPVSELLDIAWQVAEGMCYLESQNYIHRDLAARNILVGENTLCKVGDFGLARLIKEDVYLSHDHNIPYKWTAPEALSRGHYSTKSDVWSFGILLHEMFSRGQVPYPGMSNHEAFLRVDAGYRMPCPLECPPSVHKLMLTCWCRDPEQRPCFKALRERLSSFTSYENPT

MAPK15 (human) = MAPK15 (human) (UniProt Q8TD08)
EIF2AK3 (human) = EIF2AK3 (human) (UniProt Q9NZJ5)
CHEK2 (human) = CHEK2 (human) (UniProt O96017)
MAPK1 (human) = MAPK1 (human) (UniProt P28482)
Sequence of MAPK1 (human) (P28482 whole entry, looked up): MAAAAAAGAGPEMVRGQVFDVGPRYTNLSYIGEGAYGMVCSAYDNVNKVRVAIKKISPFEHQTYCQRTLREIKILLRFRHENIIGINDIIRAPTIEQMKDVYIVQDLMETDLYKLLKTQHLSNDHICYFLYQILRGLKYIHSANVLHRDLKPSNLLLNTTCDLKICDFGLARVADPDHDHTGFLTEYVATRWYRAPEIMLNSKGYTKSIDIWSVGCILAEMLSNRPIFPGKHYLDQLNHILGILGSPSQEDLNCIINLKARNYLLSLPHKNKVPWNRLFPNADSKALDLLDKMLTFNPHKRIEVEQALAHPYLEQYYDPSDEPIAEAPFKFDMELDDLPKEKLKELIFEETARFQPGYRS

DAPK1 (human) = DAPK1 (human) (UniProt P53355)
MAPK8 (human) = MAPK8 (human) (UniProt P45983)
Sequence of MAPK8 (human) (P45983 whole entry, looked up): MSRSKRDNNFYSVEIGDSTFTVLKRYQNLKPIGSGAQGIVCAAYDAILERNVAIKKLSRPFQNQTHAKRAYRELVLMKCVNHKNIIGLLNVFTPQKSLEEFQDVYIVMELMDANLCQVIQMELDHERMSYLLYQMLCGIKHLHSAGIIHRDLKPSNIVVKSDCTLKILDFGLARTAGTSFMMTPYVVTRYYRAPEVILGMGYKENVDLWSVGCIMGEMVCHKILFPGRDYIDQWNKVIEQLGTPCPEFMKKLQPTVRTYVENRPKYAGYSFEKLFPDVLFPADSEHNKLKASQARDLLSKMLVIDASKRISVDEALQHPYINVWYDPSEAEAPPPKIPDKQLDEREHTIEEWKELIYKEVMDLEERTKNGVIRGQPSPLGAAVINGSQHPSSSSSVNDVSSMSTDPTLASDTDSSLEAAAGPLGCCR

ERBB4 (human) = ERBB4 (human) (UniProt Q15303)
IKBKE (human) = IKBKE (human) (UniProt Q14164)
DDR2 (human) = DDR2 (human) (UniProt Q16832)
MELK (human) = MELK (human) (UniProt Q14680)
HIPK2 (human) = HIPK2 (human) (UniProt Q9H2X6)
SIK3 (human) = SIK3 (human) (UniProt Q9Y2K2)
RPS6KA3 KD1 KD2 (human) = RPS6KA3 KD1 KD2 (human) (UniProt P51812)
Sequence of RPS6KA3 KD1 KD2 (human) (P51812 whole entry, looked up): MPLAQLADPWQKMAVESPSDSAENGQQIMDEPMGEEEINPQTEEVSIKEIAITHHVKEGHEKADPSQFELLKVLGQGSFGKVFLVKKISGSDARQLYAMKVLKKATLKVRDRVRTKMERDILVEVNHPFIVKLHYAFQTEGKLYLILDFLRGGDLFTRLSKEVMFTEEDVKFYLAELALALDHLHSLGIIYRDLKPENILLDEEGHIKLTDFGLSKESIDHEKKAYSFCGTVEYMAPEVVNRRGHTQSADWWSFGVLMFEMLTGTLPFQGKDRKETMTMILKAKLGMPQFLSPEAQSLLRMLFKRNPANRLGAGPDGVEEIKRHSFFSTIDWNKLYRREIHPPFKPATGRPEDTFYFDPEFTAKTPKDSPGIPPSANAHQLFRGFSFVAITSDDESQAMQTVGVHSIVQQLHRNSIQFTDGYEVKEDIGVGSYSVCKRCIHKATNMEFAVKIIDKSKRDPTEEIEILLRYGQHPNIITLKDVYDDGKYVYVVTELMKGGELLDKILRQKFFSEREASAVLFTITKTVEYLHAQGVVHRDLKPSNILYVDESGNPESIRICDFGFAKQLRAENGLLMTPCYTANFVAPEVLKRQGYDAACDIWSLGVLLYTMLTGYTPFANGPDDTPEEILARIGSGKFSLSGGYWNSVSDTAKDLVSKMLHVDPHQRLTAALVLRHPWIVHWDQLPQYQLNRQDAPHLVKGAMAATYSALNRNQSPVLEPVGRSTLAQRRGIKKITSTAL

MAPK11 (human) = MAPK11 (human) (UniProt Q15759)
BRSK2 (human) = BRSK2 (human) (UniProt Q8IWQ3)
ZAP70 (human) = ZAP70 (human) (UniProt P43403)
MAPK12 (human) = MAPK12 (human) (UniProt P53778)

CNc1nc(Nc2ccc(C(=O)N3CCOCC3)cc2OC)ncc1Cl
residual activity (RIPK2 (human)): 79% | residual activity (INSR (human); compound 1.0 µM): 86% | residual activity (INSR (human); compound 10.0 µM): 50% | residual activity (EPHB3 (human)): 101% | residual activity (NTRK1 (human)): 87% | residual activity (ROCK2 (rat); compound 1.0 µM): 87% | residual activity (ROCK2 (rat); compound 10.0 µM): 71% | residual activity (EPHA4 (human); compound 1.0 µM): 100% | residual activity (EPHA4 (human); compound 10.0 µM): 94% | residual activity (DYRK1A (human)): 79% | residual activity (TAOK1 (human); compound 1.0 µM): 81% | residual activity (TAOK1 (human); compound 10.0 µM): 93% | residual activity (MAPKAPK3 (human); compound 1.0 µM): 120% | residual activity (MAPKAPK3 (human); compound 10.0 µM): 81% | residual activity (TEK (human); compound 1.0 µM): 79% | residual activity (TEK (human); compound 10.0 µM): 90% | residual activity (IRAK4 (human); compound 1.0 µM): 90% | residual activity (IRAK4 (human); compound 10.0 µM): 86% | residual activity ([1]; compound 1.0 µM): 53% | residual activity ([1]; compound 10.0 µM): 85% | residual activity (JAK2 JH1 JH2 (human)): 83% | residual activity (MAPK3 (human); compound 1.0 µM): 95% | residual activity (MAPK3 (human); compound 10.0 µM): 104% | residual activity (MAPK13 (human); compound 1.0 µM): 87% | residual activity (MAPK13 (human); compound 10.0 µM): 86% | residual activity (PTK6 (human); compound 1.0 µM): 56% | residual activity (PTK6 (human); compound 10.0 µM): 39% | residual activity (MAPK15 (human); compound 1.0 µM): 74% | residual activity (MAPK15 (human); compound 10.0 µM): 82% | residual activity (EIF2AK3 (human); compound 1.0 µM): 99% | residual activity (EIF2AK3 (human); compound 10.0 µM): 97% | residual activity (CHEK2 (human); compound 1.0 µM): 52% | residual activity (CHEK2 (human); compound 10.0 µM): 96% | residual activity (MAPK1 (human); compound 1.0 µM): 79% | residual activity (MAPK1 (human); compound 10.0 µM): 69% | residual activity (DAPK1 (human); compound 1.0 µM): 61% | residual activity (DAPK1 (human); compound 10.0 µM): 23% | residual activity (MAPK8 (human); compound 1.0 µM): 89% | residual activity (MAPK8 (human); compound 10.0 µM): 37% | residual activity (ERBB4 (human); compound 1.0 µM): 89% | residual activity (ERBB4 (human); compound 10.0 µM): 94% | residual activity (IKBKE (human); compound 1.0 µM): 77% | residual activity (IKBKE (human); compound 10.0 µM): 75% | residual activity (DDR2 (human); compound 1.0 µM): 103% | residual activity (DDR2 (human); compound 10.0 µM): 90% | residual activity (MELK (human); compound 1.0 µM): 88% | residual activity (MELK (human); compound 10.0 µM): 98% | residual activity (HIPK2 (human); compound 1.0 µM): 77% | residual activity (HIPK2 (human); compound 10.0 µM): 88% | residual activity (SIK3 (human); compound 1.0 µM): 93% | residual activity (SIK3 (human); compound 10.0 µM): 82% | residual activity (RPS6KA3 KD1 KD2 (human); compound 1.0 µM): 92% | residual activity (RPS6KA3 KD1 KD2 (human); compound 10.0 µM): 65% | residual activity (MAPK11 (human); compound 1.0 µM): 57% | residual activity (MAPK11 (human); compound 10.0 µM): 93% | residual activity (BRSK2 (human); compound 1.0 µM): 78% | residual activity (BRSK2 (human); compound 10.0 µM): 64% | residual activity (ZAP70 (human); compound 1.0 µM): 97% | residual activity (ZAP70 (human); compound 10.0 µM): 81% | residual activity (MAPK12 (human); compound 1.0 µM): 88% | residual activity (MAPK12 (human); compound 10.0 µM): 94%
